From patent publication US7157083B2, “Compositions and methods for treating retroviral infections” (priority 1998, dated 2007)
Read-outs that look alike come from different tables or passages of the source.

Assays:
HIV-1 [1] = settings: for % Control, Sum / Mean RT, Sum: Sum over 20, 10, 5 mg/mL
Description: Reverse transcriptase (RT) activity was measured in cell-free supernatants. Tritiated thymidine triphosphate (NEN) (TTP) was resuspended in distilled H2O at […]. Poly rA and oligo dT were prepared as a stock solution which was kept at −20° C. The RT reaction buffer was prepared fresh on a daily basis and consists of 125 μL 1.0 M EGTA, 125 μL d H2O, 110 μL 10% SDS, 50 μL 1.0 M Tris (pH 7.4), 50 μL 1.0 M DTT, and 40μ1.0 M MgCl2. These three solutions were mixed together in a ratio of 2 parts TTP, 1 part poly rA:oligo dT, and 1 part reaction buffer. Ten microliters of this reaction mixture was placed in a round bottom microtiter plate and 15 μL of virus containing supernatant was added and mixed. The plate was incubated at 37° C. in a water bath with a solid support to prevent submersion of the plate and incubated for 60 minutes. Following reaction, the reaction volume was spotted onto pieces of DE81 paper, washed 5 times for 5 minutes each in a 5% sodium phosphate buffer, 2 times for 1 minute each in distilled water, 2 times for 1 minute each in 70% ethanol, and then dried. Opti-Fluor O was added to each sample and incorporated radioactivity was quantitated utilizing a Wallace 1450 Microbetaplus liquid scintillation counter.
(§1) Control groups were not treated with the enzyme. The virus was then titrated on macrophage/monocyte cultures and incubated at 37° C. for 48 hours at which time the macrophages and monocytes were washed 3×, resuspended and placed in fresh wells. Naïve PBMC's were overlayed on the macrophage/monocyte cultures and incubated at 37° C. for 72 hours. The PBMC's were then separated, washed and placed in fresh wells with fresh medium and rested for 48 hours. After a 48 hour rest period, the PBMC's were challenged with HIV-1 with and without PHA, I1-2, or both. […] These various assays are presented below in Table 10 .

HIV-1 [2] = experiment: Study 5 overall: resistance of naive PBMCs to HIV-1 challenge (RT activity and P-24 assay); format: cell-based; settings: monocytes and macrophages incubated with hyaluronidase treated heat inactivated or Aldrathiol-2 treated virus
Description: as §1

ROJO (low passage HIV-1) = experiment: Study 4 sensitization, Turpin and standard macrophages: RT activity after Rojo challenge; format: cell-based; settings: Rojo Sensitized
Description: Percent virus control (% VC) in the following tables is the mean RT activity (cpm) as a percentage of a virus control. Percent cell control (% CC) is the mean XTT absorbance as a percentage of a cell control.
The macrophage plates were then washed with HBSS multiple times. Fresh mixed pha blast PBMCs (5×10e4/well) were placed on the macrophage cells, allowed to incubate for 72 hours and then harvested and reset in a fresh 96 well plate. The PBMCs were then challenged overnight with the respective virus (IIIB or Rojo) at a standard MOI for that virus. The PBMCs were 5× in plate spin washed with DPBS, incubated 24 hours, at which time 5×10e4 fresh pha blast PBMCs/well were added. The culture was incubated an additional 6 days and then assayed for RT activity.
Where viability corrections were conducted, they were performed by dividing the RT CPM value by the toxicity absorbance in order to compensate for well to well variations noted in the cell titer toxicity noted.

Hyaluronidase
% Control (HIV-1 [1]; Assay #1, 5 mg/mL): 97.3%
Mean RT (HIV-1 [1]; Assay #1, 5 mg/mL): 20882.7 cpm
% Control (HIV-1 [1]; Assay #1, 10 mg/mL): 27.9%
Mean RT (HIV-1 [1]; Assay #1, 10 mg/mL): 6000 cpm
% Control (HIV-1 [1]; Assay #1, 20 mg/mL): 16.9%
Mean RT (HIV-1 [1]; Assay #1, 20 mg/mL): 3635.7 cpm
% Control, Sum (HIV-1 [1]; Assay #1): 142.1%
Mean RT, Sum (HIV-1 [1]; Assay #1): 30518.4 cpm
% Control (HIV-1 [1]; Assay #2, 5 mg/mL): 20.6%
Mean RT (HIV-1 [1]; Assay #2, 5 mg/mL): 6548.3 cpm
% Control (HIV-1 [1]; Assay #2, 10 mg/mL): 26.4%
Mean RT (HIV-1 [1]; Assay #2, 10 mg/mL): 8391.3 cpm
% Control (HIV-1 [1]; Assay #2, 20 mg/mL): 10.4%
Mean RT (HIV-1 [1]; Assay #2, 20 mg/mL): 3298.3 cpm
% Control, Sum (HIV-1 [1]; Assay #2): 57.4%
Mean RT, Sum (HIV-1 [1]; Assay #2): 18237.9 cpm
% Control (HIV-1 [1]; Assay #3, 5 mg/mL): 42.7%
Mean RT (HIV-1 [1]; Assay #3, 5 mg/mL): 5641.7 cpm
% Control (HIV-1 [1]; Assay #3, 10 mg/mL): 91.2%
Mean RT (HIV-1 [1]; Assay #3, 10 mg/mL): 12058 cpm
% Control (HIV-1 [1]; Assay #3, 20 mg/mL): 90.3%
Mean RT (HIV-1 [1]; Assay #3, 20 mg/mL): 11940.7 cpm
% Control, Sum (HIV-1 [1]; Assay #3): 224.2%
Mean RT, Sum (HIV-1 [1]; Assay #3): 29640.4 cpm
% Control (HIV-1 [1]; Assay #4, 5 mg/mL): 1.9%
Mean RT (HIV-1 [1]; Assay #4, 5 mg/mL): 247.3 cpm
% Control (HIV-1 [1]; Assay #4, 10 mg/mL): 22.4%
Mean RT (HIV-1 [1]; Assay #4, 10 mg/mL): 2973.7 cpm
% Control (HIV-1 [1]; Assay #4, 20 mg/mL): 29.9%
Mean RT (HIV-1 [1]; Assay #4, 20 mg/mL): 3961.7 cpm
% Control, Sum (HIV-1 [1]; Assay #4): 54.2%
Mean RT, Sum (HIV-1 [1]; Assay #4): 7182.7 cpm
% Control (HIV-1 [1]; Assay #9, 5 mg/mL): 137.4%
Mean RT (HIV-1 [1]; Assay #9, 5 mg/mL): 11038 cpm
% Control (HIV-1 [1]; Assay #9, 10 mg/mL): 128.8%
Mean RT (HIV-1 [1]; Assay #9, 10 mg/mL): 10344 cpm
% Control (HIV-1 [1]; Assay #9, 20 mg/mL): 96.2%
Mean RT (HIV-1 [1]; Assay #9, 20 mg/mL): 7725.7 cpm
% Control, Sum (HIV-1 [1]; Assay #9): 362.4%
Mean RT, Sum (HIV-1 [1]; Assay #9): 29107.7 cpm
% Control (HIV-1 [1]; Assay #10, 5 mg/mL): 230.8%
Mean RT (HIV-1 [1]; Assay #10, 5 mg/mL): 13715.3 cpm
% Control (HIV-1 [1]; Assay #10, 10 mg/mL): 122.2%
Mean RT (HIV-1 [1]; Assay #10, 10 mg/mL): 7258.7 cpm
% Control (HIV-1 [1]; Assay #10, 20 mg/mL): 61.1%
Mean RT (HIV-1 [1]; Assay #10, 20 mg/mL): 3633.7 cpm
% Control, Sum (HIV-1 [1]; Assay #10): 414.1%
Mean RT, Sum (HIV-1 [1]; Assay #10): 24607.7 cpm
% Control (HIV-1 [1]; Assay #11, 5 mg/mL): 63.2%
Mean RT (HIV-1 [1]; Assay #11, 5 mg/mL): 17826.3 cpm
% Control (HIV-1 [1]; Assay #11, 10 mg/mL): 75.3%
Mean RT (HIV-1 [1]; Assay #11, 10 mg/mL): 21230 cpm
% Control (HIV-1 [1]; Assay #11, 20 mg/mL): 30.1%
Mean RT (HIV-1 [1]; Assay #11, 20 mg/mL): 8496.3 cpm
% Control, Sum (HIV-1 [1]; Assay #11): 168.6%
Mean RT, Sum (HIV-1 [1]; Assay #11): 47552.6 cpm
% Control (HIV-1 [1]; Assay #12, 5 mg/mL): 118.3%
Mean RT (HIV-1 [1]; Assay #12, 5 mg/mL): 17657 cpm
% Control (HIV-1 [1]; Assay #12, 10 mg/mL): 39.8%
Mean RT (HIV-1 [1]; Assay #12, 10 mg/mL): 5946.7 cpm
% Control (HIV-1 [1]; Assay #12, 20 mg/mL): 56.1%
Mean RT (HIV-1 [1]; Assay #12, 20 mg/mL): 8382 cpm
% Control, Sum (HIV-1 [1]; Assay #12): 214.2%
Mean RT, Sum (HIV-1 [1]; Assay #12): 31985.7 cpm
resistance of naïve PBMC's to HIV-1 challenge (HIV-1 [2]): up to 100%
RT activity % VC (ROJO (low passage HIV-1); 0.390625 μg/mL, Standard): 50.4%
RT activity % VC (ROJO (low passage HIV-1); 0.390625 μg/mL, Turpin): 69.6%
RT activity % VC (ROJO (low passage HIV-1); 0.78125 μg/mL, Standard): 59.9%
RT activity % VC (ROJO (low passage HIV-1); 0.78125 μg/mL, Turpin): 48.6%
RT activity % VC (ROJO (low passage HIV-1); 1.5625 μg/mL, Turpin): 61.1%
RT activity % VC (ROJO (low passage HIV-1); 3.125 μg/mL, Standard): 55.8%
RT activity % VC (ROJO (low passage HIV-1); 3.125 μg/mL, Turpin): 45.6%
RT activity % VC (ROJO (low passage HIV-1); 6.25 μg/mL, Standard): 57.7%
RT activity % VC (ROJO (low passage HIV-1); 6.25 μg/mL, Turpin): 39.4%
RT activity % VC (ROJO (low passage HIV-1); 25 μg/mL, Standard): 21.0%
RT activity % VC (ROJO (low passage HIV-1); 25 μg/mL, Turpin): 15.5%
RT activity % VC (ROJO (low passage HIV-1); viability corrected, 0.097656 μg/mL, Standard): 66.0%
RT activity % VC (ROJO (low passage HIV-1); viability corrected, 0.097656 μg/mL, Turpin): 94.1%
RT activity % VC (ROJO (low passage HIV-1); viability corrected, 0.390625 μg/mL, Standard): 52.2%
RT activity % VC (ROJO (low passage HIV-1); viability corrected, 0.78125 μg/mL, Standard): 55.1%
RT activity % VC (ROJO (low passage HIV-1); viability corrected, 0.78125 μg/mL, Turpin): 56.9%
RT activity % VC (ROJO (low passage HIV-1); viability corrected, 1.5625 μg/mL, Standard): 57.0%
RT activity % VC (ROJO (low passage HIV-1); viability corrected, 1.5625 μg/mL, Turpin): 69.1%
RT activity % VC (ROJO (low passage HIV-1); viability corrected, 3.125 μg/mL, Standard): 53.4%
RT activity % VC (ROJO (low passage HIV-1); viability corrected, 3.125 μg/mL, Turpin): 55.5%
RT activity % VC (ROJO (low passage HIV-1); viability corrected, 6.25 μg/mL, Standard): 56.6%
RT activity % VC (ROJO (low passage HIV-1); viability corrected, 6.25 μg/mL, Turpin): 48.5%
RT activity % VC (ROJO (low passage HIV-1); viability corrected, 25 μg/mL, Turpin): 25.6%
